From PubChem BioAssay (NCI)
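Cultured in 96-well plates, cells were exposed to test compound for 48 hours across five concentrations. Abbreviation: GI50, concentration required for 50% inhibition of growth. TGI is the concentration that stops growth completely.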

Tests used:
Test in all cases: NCI tumour cell line growth inhibition, 48 h
SF-268 CNS = test system: SF-268 CNS
SN12C renal = test system: SN12C renal
EKVX NSCLC = test system: EKVX NSCLC
MOLT-4 leukemia = test system: MOLT-4 leukemia
NCI-H226 lung = test system: NCI-H226 lung
SK-MEL-2 melanoma = test system: SK-MEL-2 melanoma
TK-10 renal = test system: TK-10 renal
CAKI-1 renal = test system: CAKI-1 renal
A498 renal = test system: A498 renal
HCC-2998 colon = test system: HCC-2998 colon

Compound	GI50 (SF-268 CNS)	TGI (SF-268 CNS)	GI50 (SN12C renal)	TGI (SN12C renal)	GI50 (EKVX NSCLC)	TGI (EKVX NSCLC)	GI50 (MOLT-4 leukemia)	TGI (MOLT-4 leukemia)	GI50 (NCI-H226 lung)	TGI (NCI-H226 lung)	GI50 (SK-MEL-2 melanoma)	TGI (SK-MEL-2 melanoma)	GI50 (TK-10 renal)	TGI (TK-10 renal)	GI50 (CAKI-1 renal)	TGI (CAKI-1 renal)	GI50 (A498 renal)	TGI (A498 renal)	TGI (HCC-2998 colon)	GI50 (HCC-2998 colon)
COc1ccc2c(c1)c(-c1ccc(-c3cn(C)c4ccc(OC)cc34)o1)cn2C	9.24 µM	> 100 µM	21.6 µM	> 100 µM	5.48 µM	23.4 µM	> 100 µM	> 100 µM	23.6 µM	> 100 µM	2.13 µM	5.28 µM	11 µM	> 100 µM	17.1 µM	> 100 µM	> 100 µM	> 100 µM		
COc1ccc2c(c1OC)C(C=C(c1ccccc1)c1ccccc1)CN(C)C2 (configuration not stated)		72.2 µM		> 100 µM		> 100 µM		64.7 µM		98.6 µM				76.1 µM		45.3 µM		65 µM	67.1 µM	
COc1cc2c(cc1OC)-c1ncc3cc(OC)c(OC)c(OC)c3c1C2			14.4 µM	47.9 µM	22.8 µM	90.1 µM					21.7 µM	73.9 µM	27.7 µM	> 100 µM	20.5 µM	86.1 µM			95.8 µM	26 µM
CCC(=O)Nc1ncnc2ncn(C(=O)CC)c12		> 100 µM		> 100 µM		> 100 µM		> 100 µM				> 100 µM		> 100 µM		> 100 µM		> 100 µM	> 100 µM	
Cc1ccc(-c2cc(=O)c3cc(C)c(C)c(C(=O)O)c3o2)cc1[N+](=O)[O-]		> 100 µM		> 100 µM		> 100 µM		> 100 µM		> 100 µM		> 100 µM		> 100 µM		> 100 µM				
C/C(=N\NS(=O)(=O)c1c(C)cc(C)cc1C)c1ccc[n+]([O-])n1		53.7 µM		29.2 µM		26 µM		37 µM								18.1 µM		86.6 µM	> 100 µM	
COc1cccc(NC(=O)c2ccc(NC3=C(Cl)C(=O)N(Cc4ccccc4)C3=O)cc2)c1	17.5 µM	37.4 µM	17.6 µM	37.1 µM	24.4 µM	49.4 µM	2.82 µM	16.2 µM	14.8 µM	28.8 µM			20.3 µM	55 µM	15.3 µM	30.9 µM	22.2 µM	48.9 µM	30.6 µM	17 µM
CCC(C)(C)NS(=O)(=O)c1ccccc1						> 100 µM		> 100 µM				> 100 µM		> 100 µM		> 100 µM		> 100 µM	> 100 µM	
CC(=O)Oc1cc(Cl)c(OC(C)=O)c2c(OC(C)=O)c(C)c(O[Si](C)(C)C(C)(C)C)cc12		26.2 µM		23.1 µM		33.9 µM		24.8 µM				42.6 µM		17.6 µM		30.7 µM		4.77 µM	15.5 µM	
